{"source": "ChEMBL document CHEMBL4196009", "about": "“Novel vitexin-inspired scaffold against leukemia” (Eur J Med Chem, 2018)", "data": [{"system": "UoC-B1", "assay": "Antiproliferative activity against human UOCB1 cells after 72 hrs by CelTiter-Glo assay", "format": "functional, cell-based", "conditions": "UoC-B1, 72 h", "units": {"EC50": "µM"}, "values": [{"smiles": "COC(=O)c1cc(=O)c2cc(NC(=O)Nc3ccc(Cl)c(Cl)c3)ccc2[nH]1", "EC50": "> 6.35"}, {"smiles": "COc1cc(OC)c2c(=O)cc(C(=O)Nc3ccc(Oc4ccc(F)cc4)cc3)[nH]c2c1", "EC50": "> 50"}, {"smiles": "COC(=O)c1cc(=O)c2cc(NC(=O)Nc3ccc4c(c3)CCN4C)ccc2[nH]1", "EC50": "> 86.2"}, {"smiles": "COC(=O)c1cc(=O)c2cc(NC(=O)Nc3cccc(C(C)=O)c3)ccc2[nH]1", "EC50": "> 8.08"}, {"smiles": "C=C(C)c1cccc(C(C)(C)NC(=O)Nc2ccc3[nH]c(C(=O)OC)cc(=O)c3c2)c1", "EC50": "> 11.5"}, {"smiles": "C=CCNC(=O)Nc1ccc2c(c1)c(=O)cc(C(=O)OC)n2C(=O)NCC=C", "EC50": "> 43.3"}, {"smiles": "COc1cc(OC)c2c(=O)cc(-c3ccc4c(c3)OCO4)[nH]c2c1", "EC50": "> 27.7"}, {"smiles": "COC(=O)c1cc(=O)c2cc(NC(=O)NCCc3cccs3)ccc2[nH]1", "EC50": "> 9.81"}]}, {"system": "KOPN-8", "assay": "Antiproliferative activity against human KOPN8 cells after 72 hrs by CelTiter-Glo assay", "format": "functional, cell-based", "conditions": "KOPN-8, 72 h", "units": {"EC50": "µM"}, "values": [{"smiles": "COc1ccc(-c2cc(=O)c3c(OC)cc(OC)cc3n2S(=O)(=O)c2ccc(Br)cc2)cc1", "EC50": "> 86.2"}, {"smiles": "COc1ccc(-c2cc(=O)c3c(OC)cc(OC)cc3n2S(=O)(=O)c2c(F)c(F)c(F)c(F)c2F)cc1", "EC50": "> 34.5"}, {"smiles": "COc1ccc(-c2cc(=O)c3c(OC)cc(OC)cc3n2S(=O)(=O)c2ccc(C)cc2)cc1", "EC50": "> 44.8"}, {"smiles": "COC(=O)c1cc(=O)c2cc(NC(=O)Nc3ccc(Cl)c(Cl)c3)ccc2[nH]1", "EC50": "> 6.35"}, {"smiles": "COc1cc(OC)c2c(=O)cc(C(=O)Nc3ccc(Oc4ccc(F)cc4)cc3)[nH]c2c1", "EC50": "> 50"}, {"smiles": "COc1ccc(-c2cc(=O)c3c(OC)cc(OC)cc3n2S(=O)(=O)c2cc(F)c(F)c(F)c2)cc1", "EC50": "> 65.5"}, {"smiles": "COC(=O)c1cc(=O)c2cc(NC(=O)Nc3ccc4c(c3)CCN4C)ccc2[nH]1", "EC50": "> 86.2"}, {"smiles": "COC(=O)c1cc(=O)c2cc(NC(=O)Nc3cccc(C(C)=O)c3)ccc2[nH]1", "EC50": "> 8.08"}, {"smiles": "C=C(C)c1cccc(C(C)(C)NC(=O)Nc2ccc3[nH]c(C(=O)OC)cc(=O)c3c2)c1", "EC50": "> 11.5"}, {"smiles": "C=CCNC(=O)Nc1ccc2c(c1)c(=O)cc(C(=O)OC)n2C(=O)NCC=C", "EC50": "> 43.3"}, {"smiles": "COc1cc(OC)c2c(=O)cc(-c3ccc4c(c3)OCO4)[nH]c2c1", "EC50": "> 27.7"}, {"smiles": "COC(=O)c1cc(=O)c2cc(NC(=O)NCCc3cccs3)ccc2[nH]1", "EC50": "> 9.81"}]}, {"system": "SUP-B15", "assay": "Antiproliferative activity against human SUP-B15 cells after 72 hrs by CelTiter-Glo assay", "format": "functional, cell-based", "conditions": "SUP-B15, 72 h", "units": {"EC50": "µM"}, "values": [{"smiles": "COc1ccc(-c2cc(=O)c3c(OC)cc(OC)cc3n2S(=O)(=O)c2ccc(Br)cc2)cc1", "EC50": 63.8}, {"smiles": "COc1ccc(-c2cc(=O)c3c(OC)cc(OC)cc3n2S(=O)(=O)c2c(F)c(F)c(F)c(F)c2F)cc1", "EC50": 4.1}, {"smiles": "COc1ccc(-c2cc(=O)c3c(OC)cc(OC)cc3n2S(=O)(=O)c2ccc(C)cc2)cc1", "EC50": "> 44.8"}, {"smiles": "COC(=O)c1cc(=O)c2cc(NC(=O)Nc3ccc(Cl)c(Cl)c3)ccc2[nH]1", "EC50": 5.52}, {"smiles": "COc1cc(OC)c2c(=O)cc(C(=O)Nc3ccc(Oc4ccc(F)cc4)cc3)[nH]c2c1", "EC50": "> 50"}, {"smiles": "COc1ccc(-c2cc(=O)c3c(OC)cc(OC)cc3n2S(=O)(=O)c2cc(F)c(F)c(F)c2)cc1", "EC50": "> 65.5"}, {"smiles": "COC(=O)c1cc(=O)c2cc(NC(=O)Nc3ccc4c(c3)CCN4C)ccc2[nH]1", "EC50": "> 86.2"}, {"smiles": "COC(=O)c1cc(=O)c2cc(NC(=O)Nc3cccc(C(C)=O)c3)ccc2[nH]1", "EC50": 11.4}, {"smiles": "C=C(C)c1cccc(C(C)(C)NC(=O)Nc2ccc3[nH]c(C(=O)OC)cc(=O)c3c2)c1", "EC50": "> 23"}, {"smiles": "C=CCNC(=O)Nc1ccc2c(c1)c(=O)cc(C(=O)OC)n2C(=O)NCC=C", "EC50": 86.2}, {"smiles": "COc1cc(OC)c2c(=O)cc(-c3ccc4c(c3)OCO4)[nH]c2c1", "EC50": 18.8}, {"smiles": "COC(=O)c1cc(=O)c2cc(NC(=O)NCCc3cccs3)ccc2[nH]1", "EC50": "> 19.5"}]}, {"system": "HepG2", "assay": "Antiproliferative activity against human HepG2 cells after 72 hrs by CelTiter-Glo assay", "format": "functional, cell-based", "conditions": "HepG2, 72 h", "units": {"EC50": "µM"}, "values": [{"smiles": "COc1ccc(-c2cc(=O)c3c(OC)cc(OC)cc3n2S(=O)(=O)c2ccc(Br)cc2)cc1", "EC50": 16.3}, {"smiles": "COc1ccc(-c2cc(=O)c3c(OC)cc(OC)cc3n2S(=O)(=O)c2c(F)c(F)c(F)c(F)c2F)cc1", "EC50": "> 34.5"}, {"smiles": "COc1ccc(-c2cc(=O)c3c(OC)cc(OC)cc3n2S(=O)(=O)c2ccc(C)cc2)cc1", "EC50": "> 44.8"}, {"smiles": "COC(=O)c1cc(=O)c2cc(NC(=O)Nc3ccc(Cl)c(Cl)c3)ccc2[nH]1", "EC50": "> 6.35"}, {"smiles": "COc1cc(OC)c2c(=O)cc(C(=O)Nc3ccc(Oc4ccc(F)cc4)cc3)[nH]c2c1", "EC50": "> 50"}, {"smiles": "COc1ccc(-c2cc(=O)c3c(OC)cc(OC)cc3n2S(=O)(=O)c2cc(F)c(F)c(F)c2)cc1", "EC50": "> 65.5"}, {"smiles": "COC(=O)c1cc(=O)c2cc(NC(=O)Nc3ccc4c(c3)CCN4C)ccc2[nH]1", "EC50": "> 86.2"}, {"smiles": "COC(=O)c1cc(=O)c2cc(NC(=O)Nc3cccc(C(C)=O)c3)ccc2[nH]1", "EC50": "> 8.08"}, {"smiles": "C=C(C)c1cccc(C(C)(C)NC(=O)Nc2ccc3[nH]c(C(=O)OC)cc(=O)c3c2)c1", "EC50": "> 11.5"}, {"smiles": "C=CCNC(=O)Nc1ccc2c(c1)c(=O)cc(C(=O)OC)n2C(=O)NCC=C", "EC50": "> 43.3"}, {"smiles": "COc1cc(OC)c2c(=O)cc(-c3ccc4c(c3)OCO4)[nH]c2c1", "EC50": "> 27.7"}, {"smiles": "COC(=O)c1cc(=O)c2cc(NC(=O)NCCc3cccs3)ccc2[nH]1", "EC50": "> 9.81"}]}, {"system": "SEM cells", "assay": "Antiproliferative activity against human SEM cells after 72 hrs by CelTiter-Glo assay", "format": "functional, cell-based", "conditions": "not given", "units": {"EC50": "µM"}, "values": [{"smiles": "COc1ccc(-c2cc(=O)c3c(OC)cc(OC)cc3n2S(=O)(=O)c2c(F)c(F)c(F)c(F)c2F)cc1", "EC50": 3.9}, {"smiles": "COC(=O)c1cc(=O)c2cc(NC(=O)Nc3ccc(Cl)c(Cl)c3)ccc2[nH]1", "EC50": "> 6.35"}, {"smiles": "COc1cc(OC)c2c(=O)cc(C(=O)Nc3ccc(Oc4ccc(F)cc4)cc3)[nH]c2c1", "EC50": "> 50"}, {"smiles": "COC(=O)c1cc(=O)c2cc(NC(=O)Nc3ccc4c(c3)CCN4C)ccc2[nH]1", "EC50": "> 86.2"}, {"smiles": "COC(=O)c1cc(=O)c2cc(NC(=O)Nc3cccc(C(C)=O)c3)ccc2[nH]1", "EC50": "> 8.08"}, {"smiles": "C=C(C)c1cccc(C(C)(C)NC(=O)Nc2ccc3[nH]c(C(=O)OC)cc(=O)c3c2)c1", "EC50": "> 11.5"}, {"smiles": "C=CCNC(=O)Nc1ccc2c(c1)c(=O)cc(C(=O)OC)n2C(=O)NCC=C", "EC50": "> 43.3"}, {"smiles": "COc1cc(OC)c2c(=O)cc(-c3ccc4c(c3)OCO4)[nH]c2c1", "EC50": "> 27.7"}, {"smiles": "COC(=O)c1cc(=O)c2cc(NC(=O)NCCc3cccs3)ccc2[nH]1", "EC50": "> 9.81"}]}, {"system": "BJ", "assay": "Antiproliferative activity against human BJ cells after 72 hrs by CelTiter-Glo assay", "format": "cell-based", "conditions": "not given", "units": {"EC50": "µM"}, "values": [{"smiles": "COc1ccc(-c2cc(=O)c3c(OC)cc(OC)cc3n2S(=O)(=O)c2ccc(Br)cc2)cc1", "EC50": "> 86.2"}, {"smiles": "COc1ccc(-c2cc(=O)c3c(OC)cc(OC)cc3n2S(=O)(=O)c2c(F)c(F)c(F)c(F)c2F)cc1", "EC50": "> 34.5"}, {"smiles": "COc1ccc(-c2cc(=O)c3c(OC)cc(OC)cc3n2S(=O)(=O)c2ccc(C)cc2)cc1", "EC50": "> 44.8"}, {"smiles": "COC(=O)c1cc(=O)c2cc(NC(=O)Nc3ccc(Cl)c(Cl)c3)ccc2[nH]1", "EC50": "> 12.6"}, {"smiles": "COc1cc(OC)c2c(=O)cc(C(=O)Nc3ccc(Oc4ccc(F)cc4)cc3)[nH]c2c1", "EC50": "> 50"}, {"smiles": "COc1ccc(-c2cc(=O)c3c(OC)cc(OC)cc3n2S(=O)(=O)c2cc(F)c(F)c(F)c2)cc1", "EC50": "> 65.5"}, {"smiles": "COC(=O)c1cc(=O)c2cc(NC(=O)Nc3ccc4c(c3)CCN4C)ccc2[nH]1", "EC50": "> 86.2"}, {"smiles": "COC(=O)c1cc(=O)c2cc(NC(=O)Nc3cccc(C(C)=O)c3)ccc2[nH]1", "EC50": "> 16.1"}, {"smiles": "C=C(C)c1cccc(C(C)(C)NC(=O)Nc2ccc3[nH]c(C(=O)OC)cc(=O)c3c2)c1", "EC50": "> 23"}, {"smiles": "C=CCNC(=O)Nc1ccc2c(c1)c(=O)cc(C(=O)OC)n2C(=O)NCC=C", "EC50": 86.2}, {"smiles": "COc1cc(OC)c2c(=O)cc(-c3ccc4c(c3)OCO4)[nH]c2c1", "EC50": "> 55.2"}, {"smiles": "COC(=O)c1cc(=O)c2cc(NC(=O)NCCc3cccs3)ccc2[nH]1", "EC50": "> 19.5"}]}]}
